For experiment [1], the target named is T1, E3 ubiquitin-protein ligase Mdm2 [1-118] (Homo sapiens, UniProt Q00987).
T1 construct: 1-118
The experiment in a line: NMR Measurements. The conditions noted are these: pH 7.4; 15 °C.

In experiment [2] the target is T2, E3 ubiquitin-protein ligase Mdm2 [1-118,T47W] (Homo sapiens, UniProt Q00987, T47W).
T2 construct: 1-118
The experiment in a line: Microscale Thermophoresis (MT) Binding Assay. The conditions noted are these: pH 7.4; 25 °C. Here is the method: Experiments were performed in 50 mM phosphate buffer at pH 7.4 containing 150 mM NaCl, 5 mM DTT, and 5% DMSO.
For orientation: MST reads how a fluorescent partner responds to local heating, with and without ligand.

As usually defined, the Kd is a measure of binding affinity in units of concentration. High values mean weaker binding, low ones tighter binding.

On to `O=C1OC(O)(Cc2ccc(F)cc2)C(c2c[nH]c3cc(Cl)ccc23)=C1Cc1ccc(Cl)cc1` (centres undefined) [3-(4-Chlorobenzyl)-4-(6-chloro-1H-indol-3-yl)-5-(4-fluorobenzyl)-5-hydroxy-1,5-dihydro-2H-furan-2-one (2c)], for which the values for the Kd in experiment [1] and in experiment [2] were 18 µM and 28.7 µM, respectively. The matching figures for `O=C1OC(O)(Cc2ccc(Cl)cc2)C(Cc2ccc(Cl)cc2)=C1c1c[nH]c2cc(Cl)ccc12` (centres undefined) [4,5-di(4-chlorobenzyl)-3-(6-chloro-1H-indol-3-yl)-5-hydroxy-1,5-dihydro-2H-furan-2-one (2b)]: 86 µM and 1.5 µM.

In turn, `O=C1OC(O)(Cc2ccc(F)cc2)C(Cc2ccc(Cl)cc2)=C1c1c[nH]c2cc(Cl)ccc12` (centres undefined) [4-(4-chlorobenzyl)-3-(6-chloro-1H-indol-3-yl)-5-(4-fluorobenzyl)-5-hydroxy-1,5-dihydro-2H-furan-2-one (2d)] gave a Kd in experiment [2] of 26 µM. With `O=C1OC(O)(Cc2ccc(Cl)cc2)C(c2c[nH]c3cc(Cl)ccc23)=C1c1ccc(Cl)cc1` (centres undefined) [5-(4-Chlorobenzyl)-4-(6-chloro-1H-indol-3-yl)-3-(4-chlorophenyl)-5-hydroxy-1,5-dihydro-2H-furan-2-one (2e)], the Kd in experiment [1] came to 60 µM; in experiment [2], 1.3 µM.

`O=C1OC(O)(Cc2ccc(Cl)cc2)C(c2ccc(Cl)cc2)=C1c1c[nH]c2cc(Cl)ccc12` (centres undefined) [5-(4-chlorobenzyl)-3-(6-chloro-1H-indol-3-yl)-4-(4-chlorophenyl)-5-hydroxy-1,5-dihydro-2H-furan-2-one (2f)]: the Kd in experiment [1] worked out at 68 µM; in experiment [2], 7 µM.

As for `O=C1C(c2c[nH]c3cc(Cl)ccc23)=C(c2ccc(Cl)cc2)C(O)N1Cc1ccc(Cl)cc1` (centres undefined) [N-(4-Chlorobenzyl)-3-(6-chloro-1H-indol-3-yl)-4-(4-chlorophenyl)-5-hydroxy-1,5-dihydro-2H-pyrrol-2-on (1h)], the Kd in experiment [1] turned out to be 40 µM; in experiment [2], 2.1 µM. In the same order, the values of `O=C1C(c2ccc(Cl)cc2)=C(c2c[nH]c3cc(Cl)ccc23)C(O)N1Cc1ccc(Cl)cc1` (centres undefined) [N-(4-chlorobenzyl)-4-(6-chloro-1H-indol-3-yl)-3-(4-chlorophenyl)-5-hydroxy-1,5-dihydro-2H-pyrrol-2-on (1g)] are 164 µM and 24.4 µM. In the same order, the values of `CN1C(=O)C(Cc2ccc(Cl)cc2)=C(c2c[nH]c3cc(Cl)ccc23)C1(O)Cc1ccc(Cl)cc1` (centres undefined) [N-Methyl-3,5-di(4-chlorobenzyl)-4-(6-chloro-1H-indol-3-yl)-5-hydroxy-1,5-dihydro-2H-pyrrol-2-one (1a)] are below 1 µM and 0.5 µM. In the same order, the values of `CN1C(=O)C(c2ccc(Cl)cc2)=C(c2cn(C)c3cc(Cl)ccc23)C1(O)Cc1ccc(Cl)cc1` (centres undefined) [N-Methyl-5-(4-chlorobenzyl)-4-(6-chloro-1-methyl-1H-indol-3-yl)-3-(4-chlorophenyl)-5-hydroxy-1,5-dihydro-2H-pyrrol-2-one (1e)] are 365 µM and 40.5 µM. As to `CN1C(=O)C(c2ccc(Cl)cc2)=C(c2c[nH]c3cc(Cl)ccc23)C1(O)Cc1ccc(Cl)cc1` (centres undefined) [N-Methyl-5-(4-chlorobenzyl)-4-(6-chloro-1H-indol-3-yl)-3-(4-chlorophenyl)-5-hydroxy-1,5-dihydro-2H-pyrrol-2-one (1c)], the Kd in experiment [1] was determined as 51 µM; in experiment [2], 18.7 µM. In experiment [1], `CN1C(=O)C(c2c[nH]c3cc(Cl)ccc23)=C(Cc2ccc(Cl)cc2)C1(O)Cc1ccc(Cl)cc1` (centres undefined) [N-methyl-4,5-di(4-chlorobenzyl)-3-(6-chloro-1H-indol-3-yl)-5-hydroxy-1,5-dihydro-2H-pyrrol-2-one (1b)] registered a Kd of 56 µM.

`CN1C(=O)C(c2cn(C)c3cc(Cl)ccc23)=C(c2ccc(Cl)cc2)C1(O)Cc1ccc(Cl)cc1` (centres undefined) [N-methyl-5-(4-chlorobenzyl)-3-(6-chloro-1-methyl-1H-indol-3-yl)-4-(4-chlorophenyl)-5-hydroxy-1,5-dihydro-2H-pyrrol-2-one (1f)]: the figures for the Kd in experiment [1] and in experiment [2] were 246 µM and 30.4 µM, respectively.

On to `CN1C(=O)C(c2c[nH]c3cc(Cl)ccc23)=C(c2ccc(Cl)cc2)C1(O)Cc1ccc(Cl)cc1` (centres undefined) [N-methyl-5-(4-chlorobenzyl)-3-(6-chloro-1H-indol-3-yl)-4-(4-chlorophenyl)-5-hydroxy-1,5-dihydro-2H-pyrrol-2-one (1d)], for which the values for the Kd in experiment [1] and in experiment [2] were 192 µM and 27.7 µM, respectively.

The record behind these values is BindingDB's records for doi:10.1021/acschembio.6b00596 (Jagiellonian University, 2016).
